Measurements as given in patent US20230219951A1, “PYRIDINE-PYRIMIDINE DERIVATIVE, PREPARATION METHOD THEREFOR AND PHARMACEUTICAL USE THEREOF” (Jiangsu Hengrui Pharmaceuticals Co., Ltd., priority 2020, published 2023).

Key:
CYP3A4M = molecular target: T1, CYP3A4M (Homo sapiens, UniProt P08684); experiment: Human liver microsome CYP450 inhibition, CYP3A4M midazolam 1-hydroxylation; format: in vitro ADME; conditions: human liver microsomes, midazolam probe substrate
T1 construct: tissue Corning Gentest 452161; host or cells: human liver microsomes
T1 sequence (P08684 whole entry): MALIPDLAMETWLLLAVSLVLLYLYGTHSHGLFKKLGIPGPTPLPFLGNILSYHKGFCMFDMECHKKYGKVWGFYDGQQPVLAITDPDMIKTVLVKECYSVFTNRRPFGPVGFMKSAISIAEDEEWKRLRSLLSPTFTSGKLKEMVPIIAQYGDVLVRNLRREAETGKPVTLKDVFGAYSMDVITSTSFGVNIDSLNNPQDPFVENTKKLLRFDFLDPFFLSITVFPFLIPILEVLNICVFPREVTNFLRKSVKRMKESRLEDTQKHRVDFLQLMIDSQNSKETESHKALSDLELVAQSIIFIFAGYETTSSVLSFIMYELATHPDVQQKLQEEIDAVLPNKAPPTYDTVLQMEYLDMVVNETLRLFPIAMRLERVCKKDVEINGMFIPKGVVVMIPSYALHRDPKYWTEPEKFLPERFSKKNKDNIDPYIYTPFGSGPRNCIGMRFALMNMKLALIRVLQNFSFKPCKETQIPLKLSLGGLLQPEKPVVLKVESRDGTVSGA
Procedure: The inhibition effect of the compounds of the present disclosure on the human liver microsome CYP450 enzyme was determined by the following method:
An appropriate amount of human liver microsome stock solution (20 mg/mL) was diluted to obtain a 0.25 mg/mL microsome solution with 7.5 mM MgC12 solution for later use (prepared right before use).
b. An appropriate amount of the stock solution was precisely pipetted, and diluted into series solution I at the concentrations of 10 mM, 3 mM, 1 mM, 0.3 mM, 0.03 mM and 0.003 mM with an appropriate amount of DMSO solution. An appropriate amount of the above series solution I was precisely pipetted, and diluted to obtain series solution II at the concentrations of 3 mM, 1 mM, 0.3 mM, 0.1 mM, 0.03 mM, 0.003 mM and 0.0003 mM with an appropriate amount of acetonitrile. An appropriate amount of the above series solution II was precisely pipetted, and diluted with PBS to obtain a working solution at the concentrations of 150 μM, 50 μM, 15 μM, 5μM, 1.5 μM, 0.15 μM and 0.015 μM for later use.
a. […]
The values were calculated by Graphpad Prism to obtain the IC50 values for the inhibition of drugs on CYP2C19 (S)-mephenytoin 4′-hydroxylation and CYP3A4M midazolam 1-hydroxylation metabolism in human liver microsomes, as shown in Table 6.

H358 cells = experiment: Inhibition of proliferation of H358 cells (CellTiter-Glo 3D); format: cell-based; conditions: Homo sapiens, NCI-H358, low adsorption plate, 120 h
In short: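 H358 cells at 1500/well in low-adsorption plates (RPMI, 10% FBS), centrifuged and grown overnight, then exposed 120 h at 37 °C to 9 concentrations, 5-fold dilutions from 10 μM; 0.1% DMSO blank. Luminescence read with CellTiter-Glo 3D; IC50 calculated from the curves.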

IC50 (CYP3A4M): > 30 µM
IC50 (H358 cells): 72 nM
Structure (SMILES): Cc1nc(N[C@H](C)c2cccc(C(F)F)c2F)c2cc([C@]3(O)CC[C@@H](O)CC3)c(=O)[nH]c2n1 [Example 18-p1, 4-(((R)-1-(3-(difluoromethyl)-2-fluorophenyl)ethyl)amino)-6-((1s,4S)-1,4-dihydroxycyclohexyl)-2-methylpyrido[2,3-d]pyrimidin-7(8H)-one]
